The values that follow come from patent US20240376111A1, “COMPOSITIONS AND METHODS OF USING THE SAME FOR TREATMENT OF NEURODEGENERATIVE AND MITOCHONDRIAL DISEASE” (Mitokinin, Inc., priority 2021, published 2024).

Several values for one entry are separate records, joined by “and”; a condition that tells them apart may be missing. Equal entries are not always repeated. Where two headings read alike, the source gives them in different places.

A word on the EC50: it is the concentration needed to bring the measured effect to its halfway point.

The subject of data set [1] is HeLa cells expressing mt-Keima and YFP-Parkin (HeLa MKYP). Description: Human mt-Keima mitophagy assay. As to conditions: Homo sapiens. Type of data set: cell-based. The protocol: Briefly, HeLa cells expressing mt-Keima and YFP-Parkin (HeLa MKYP) were plated at 10,000 cells/well in 96 well plates along with compounds at various concentrations. Following 16 hrs of incubation, cells were treated with 1 uM FCCP/oligomycin for 6 hours, then analyzed via FACS for the presence of mitochondria in lysosomes (as determined by an emissions spectrum shift from the pH-sensitive mt-Keima tag).

The test system of a further data set is SKOV3 cells. Put plainly: In vitro mitosafety (glucose/galactose) assay. The conditions noted are these: highest mito-safe dose = highest concentration at which gal/glc>0.80 (IC20) in SKOV3 cells, divided by mt-Keima EC50.
[2] abbreviates: HeLa MKYP cells, 16 hrs with compound, then 1 uM FCCP/oligomycin for 6 hours, FACS, read-out: EC50 in HeLa mt-Keima Mitophagy Assay.

Experimental for SKOV3 cells: Briefly, SKOV3 cells (ATCC HTB-77) were plated in DMEM (Corning 10-013-CV) medium containing 25 mM glucose or DMEM with no glucose (Gibco 11966-025) supplemented with 10 mM galactose at 9,000 cells/well in 96 well plates (Corning costar 3610). 24 hrs later, compounds, in DMSO, were added at various concentrations to a final 0.1% DMSO for all wells. […] After a 15 minute incubation cellular ATP levels were read out using a Promega GloMax® DiscoverMicroplate Reader.
The ratio of relative CellTiter-Glo values from cells grown in galactose to cells grown in glucose was determined (gal/glc ratio). The gal/glc ratio vs concentration is then graphed, and non-linear regression is used to find the highest concentration of MTK compound at which gal/glc>0.80 (the “highest mito-safe dose”, or IC20).

On to `CC(C)(C#N)CC[C@@H]1COc2ccccc2[C@H]1Nc1ncnc2[nH]c(C3CC3)cc12` (relative stereo) [EP-0042291, 4-[trans-4-[(6-cyclopropyl-7H-pyrrolo[2,3-d]pyrimidin-4-yl)amino]chroman-3-yl]-2,2-dimethyl-butanenitrile], for which, in data set [1] (setting [2]), the EC50 is 78 nM. The “Mito-Safety Index (highest mito-safe dose/mt-Keima EC50)” value (from here on “Mito-Safety Index”) with SKOV3 cells amounted to 64.67.

`FC(F)(F)c1cc2c(N[C@H]3CC4(CCCC4)Oc4ccccc43)ncnc2[nH]1` (single isomer, unassigned) [EP-0041356, N-spiro[chromane-2,1′-cyclopentane]-4-yl-6-(trifluoromethyl)-7H-pyrrolo[2,3-d]pyrimidin-4-amine]: the EC50 in data set [1] (setting [2]) turned out to be 414 nM. Also, the “Mito-Safety Index” value with SKOV3 cells is on record as 60.24.

For `COCC[C@@H]1COc2ccccc2[C@H]1Nc1ncnc2[nH]c(C(F)(F)F)cc12` (single isomer, unassigned) [EP-0041398, N-[trans-3-(2-methoxyethyl)chroman-4-yl]-6-(trifluoromethyl)-7H-pyrrolo[2,3-d]pyrimidin-4-amine], in data set [1] (setting [2]), the EC50 turned out to be 356 nM. The “Mito-Safety Index” value with SKOV3 cells was 43.54.

In the case of `COCCCC1COc2ccccc2C1Nc1ncnc2[nH]c(C(F)(F)F)cc12` (single isomer, unassigned) [EP-0041483, N-[3-(3-methoxypropyl)chroman-4-yl]-6-(trifluoromethyl)-7H-pyrrolo[2,3-d]pyrimidin-4-amine], the EC50 in data set [1] (setting [2]) is 70 nM. For the same molecule, in the data set on SKOV3 cells, the “Mito-Safety Index” value is reported as 48.05.

`CC(C)(C#N)CCC1COc2ccccc2C1Nc1ncnc2[nH]c(C3CC3)cc12` (single isomer, unassigned) [EP-0042850, 4-[trans-4-[(6-cyclopropyl-7H-pyrrolo[2,3-d]pyrimidin-4-yl)amino]chroman-3-yl]-2,2-dimethyl-butanenitrile]: in data set [1] (setting [2]), the EC50 came out at 90 nM. Further, in the data set on SKOV3 cells, the “Mito-Safety Index” value was 70.99.

On to `COC[C@]1(C)C[C@@H](Nc2ncnc3[nH]c(C(F)(F)F)cc23)c2ccccc2O1` (single isomer, unassigned) [EP-0043980], for which, in data set [1] (setting [2]), the EC50 stood at 100 nM. Moreover, the “Mito-Safety Index” value in the data set with SKOV3 cells amounted to 73.0.

On to `CC(C)(C#N)CO[C@@H]1COc2ccccc2[C@H]1Nc1ncnc2[nH]c(C3CC3)cc12` (stereo in doubt) [EP-0042976, 3-[(3S,4R)-4-[(6-cyclopropyl-7H-pyrrolo[2,3-d]pyrimidin-4-yl)amino]chroman-3-yl]oxy-2,2-dimethyl-propanenitrile], for which the EC50 in data set [1] (setting [2]) came to 53 nM. The “Mito-Safety Index” value in the data set with SKOV3 cells amounted to 302.16.

As to `FC(F)(F)c1cc2c(NC3CC4(CCCC4)Oc4ccccc43)ncnc2[nH]1` (stereo not drawn) [EP-0041220], in data set [1] (setting [2]), the EC50 turned out to be 608 nM. The “Mito-Safety Index” value with SKOV3 cells worked out at 41.11.

For `COCC[C@H]1COc2ccccc2[C@@H]1Nc1ncnc2[nH]c(C(F)(F)F)cc12` [EP-0041252], in data set [1] (setting [2]), the EC50 came to 634 nM. For the same molecule, the “Mito-Safety Index” value with SKOV3 cells was 39.13.

As to `COCCO[C@H]1COc2cc(F)ccc2[C@@H]1Nc1ncnc2[nH]c(C3CC3)cc12` [EP-0042287, 6-cyclopropyl-N-[(3R,4S)-7-fluoro-3-(2-methoxyethoxy)chroman-4-yl]-7H-pyrrolo[2,3-d]pyrimidin-4-amine], the EC50 in data set [1] (setting [2]) was determined as 180 nM. Further, in the data set on SKOV3 cells, the “Mito-Safety Index” value is recorded as 38.56.

For the molecule `COCCO[C@H]1COc2cc(F)ccc2[C@@H]1Nc1ncnc2[nH]c(C(F)(F)F)cc12` [EP-0042288, N-[(3R,4S)-7-fluoro-3-(2-methoxyethoxy)chroman-4-yl]-6-(trifluoromethyl)-7H-pyrrolo[2,3-d]pyrimidin-4-amine], the EC50 in data set [1] (setting [2]) was found to be 397 nM. Also, in the data set on SKOV3 cells, the “Mito-Safety Index” value is 40.57.

Take `COCCCO[C@H]1COc2ccccc2[C@@H]1Nc1ncnc2[nH]c(C3CC3)cc12` [EP-0042529, 4,6-cyclopropyl-N-[(3R,4S)-3-(3-methoxypropoxy)chroman-4-yl]-7H-pyrrolo[2,3-d]pyrimidin-4-amine]: in data set [1] (setting [2]), the EC50 turned out to be 95 nM. The “Mito-Safety Index” value in the data set on SKOV3 cells was determined as 80.20.

For the molecule `COC(C)(C)CO[C@H]1COc2ccccc2[C@@H]1Nc1ncnc2[nH]c(C3CC3)cc12` [EP-0042538, 6-cyclopropyl-N-[(3R,4S)-3-(2-methoxy-2-methyl-propoxy)chroman-4-yl]-7H-pyrrolo[2,3-d]pyrimidin-4-amine], the EC50 is under 0.03 nM in data set [1] (HeLa, refers to the table, read-out: EC50) and 30 nM in data set [1] (setting [2]). The “Mito-Safety Index” value in the data set on SKOV3 cells turned out to be 51.11.

As to `CC(C)(O)CO[C@H]1COc2ccccc2[C@@H]1Nc1ncnc2[nH]c(C3CC3)cc12` [EP-0042541, 1-[(3R,4S)-4-[(6-cyclopropyl-7H-pyrrolo[2,3-d]pyrimidin-4-yl)amino]chroman-3-yl]oxy-2-methyl-propan-2-ol], the 50% effective concentration (EC50) in data set [1] (setting [2]) came out at 123 nM. Besides, the “Mito-Safety Index” value in the data set with SKOV3 cells is 50.82.

For `COC(C)(C)CO[C@H]1COc2ccccc2[C@@H]1Nc1ncnc2[nH]c(C(F)(F)F)cc12` [EP-0042655, N-[(3R,4S)-3-(2-methoxy-2-methyl-propoxy)chroman-4-yl]-6-(trifluoromethyl)-7H-pyrrolo[2,3-d]pyrimidin-4-amine], the EC50 in data set [1] (setting [2]) was determined as 119 nM. For the same molecule, in the data set on SKOV3 cells, the “Mito-Safety Index” value amounted to 38.50.

Regarding `CC(C)(O)CO[C@H]1COc2ccccc2[C@@H]1Nc1ncnc2[nH]c(C(F)(F)F)cc12` [EP-0042979, 2-methyl-1-[(3R,4S)-4-[[6-(trifluoromethyl)-7H-pyrrolo[2,3-d]pyrimidin-4-yl]amino]chroman-3-yl]oxy-propan-2-ol], in data set [1] (setting [2]), the EC50 was 468 nM. The “Mito-Safety Index” value in the data set on SKOV3 cells was determined as 53.45.

As to `CC(C)(C#N)CO[C@H]1COc2ccccc2[C@@H]1Nc1ncnc2[nH]c(C(F)(F)F)cc12` [EP-0043230, 2,2-dimethyl-3-[(3R,4S)-4-[[6-(trifluoromethyl)-7H-pyrrolo[2,3-d]pyrimidin-4-yl]amino]chroman-3-yl]oxy-propanenitrile], the EC50 in data set [1] (setting [2]) turned out to be 417 nM. Moreover, the “Mito-Safety Index” value in the data set with SKOV3 cells turned out to be 43.73.

`CC(C)(F)CO[C@H]1COc2ccccc2[C@@H]1Nc1ncnc2[nH]c(C(F)(F)F)cc12` [EP-0043741, N-[(3R,4S)-3-(2-fluoro-2-methyl-propoxy)chroman-4-yl]-6-(trifluoromethyl)-7H-pyrrolo[2,3-d]pyrimidin-4-amine]: the EC50 in data set [1] (setting [2]) is 510 nM. In addition, the “Mito-Safety Index” value in the data set with SKOV3 cells was found to be 49.0.

For the molecule `FC(F)(F)c1cc2c(N[C@H]3c4ccccc4OC[C@@H]3OCC3CC3)ncnc2[nH]1` [EP-0043810, N-((3R,4S)-3-(cyclopropylmethoxy)chroman-4-yl)-6-(trifluoromethyl)-7H-pyrrolo[2,3-d]pyrimidin-4-amine], the EC50 in data set [1] (setting [2]) stood at 540 nM. Moreover, the “Mito-Safety Index” value in the data set on SKOV3 cells came out at 46.3.

For `CCO[C@H]1COc2ccccc2[C@@H]1Nc1ncnc2[nH]c(C(F)(F)F)cc12` [EP-0043811, N-((3R,4S)-3-ethoxychroman-4-yl)-6-(trifluoromethyl)-7H-pyrrolo[2,3-d]pyrimidin-4-amine], the EC50 in data set [1] (setting [2]) was found to be 930 nM. For the same molecule, in the data set with SKOV3 cells, the “Mito-Safety Index” value is recorded as 26.9.

Turning to `CC(C)CO[C@H]1COc2ccccc2[C@@H]1Nc1ncnc2[nH]c(C(F)(F)F)cc12` [EP-0043813, N-((3R,4S)-3-isobutoxychroman-4-yl)-6-(trifluoromethyl)-7H-pyrrolo[2,3-d]pyrimidin-4-amine], in data set [1] (setting [2]), the EC50 is 170 nM. Also, the “Mito-Safety Index” value with SKOV3 cells was 147.1.

Take `Fc1ccc2c(c1)OC[C@H](OCC1CC1)[C@H]2Nc1ncnc2[nH]c(C(F)(F)F)cc12` [EP-0043819, N-((3R,4S)-3-(cyclopropylmethoxy)-7-fluorochroman-4-yl)-6-(trifluoromethyl)-7H-pyrrolo[2,3-d]pyrimidin-4-amine]: the EC50 in data set [1] (setting [2]) was 680 nM. Besides, the “Mito-Safety Index” value with SKOV3 cells was found to be 36.7.

With `FC(F)(F)c1cc2c(N[C@H]3c4ccccc4OC[C@@H]3OCC3COC3)ncnc2[nH]1` [EP-0043826, N-((3R,4S)-3-(oxetan-3-ylmethoxy)chroman-4-yl)-6-(trifluoromethyl)-7H-pyrrolo[2,3-d]pyrimidin-4-amine], the concentration giving a half-maximal response (EC50) in data set [1] (setting [2]) is 280 nM. In addition, the “Mito-Safety Index” value in the data set on SKOV3 cells was 60.4 and 60.3.

Regarding `FC(F)(F)c1cc2c(N[C@H]3c4ccccc4OC[C@@H]3OCC3CCOC3)ncnc2[nH]1` (stereo partly drawn) [EP-0043842, N-((3R,4S)-3-((tetrahydrofuran-3-yl)methoxy)chroman-4-yl)-6-(trifluoromethyl)-7H-pyrrolo[2,3-d]pyrimidin-4-amine], the EC50 in data set [1] (setting [2]) stood at 620 nM. In addition, in the data set with SKOV3 cells, the “Mito-Safety Index” value was found to be 38.4.

Turning to `CC(C)CO[C@H]1COc2ccccc2[C@@H]1Nc1nccc2[nH]c(C(F)(F)F)cc12` [EP-0043866], the EC50 in data set [1] (setting [2]) came out at 340 nM. For the same molecule, the “Mito-Safety Index” value with SKOV3 cells came to 32.6.
